Data from ChEMBL document CHEMBL4480396 (Eur J Med Chem, 2019).
Each block holds one compound with its values, some of them ahead of it. Activity calls are given as the source filed them. The calls are words filed in the database; no cut-off is given here.

Assays:
PC-3 = experiment: Antiproliferative activity against human PC3 cells measured after 48 hrs by MTT assay; assay type: functional, cell-based; details: PC-3, 48 h
MGC-803 [1] = experiment: Antiproliferative activity against human MGC803 cells measured after 48 hrs by MTT assay; assay type: functional, cell-based; details: MGC-803, 48 h
HepG2 = experiment: Antiproliferative activity against human HepG2 cells measured after 48 hrs by MTT assay; assay type: functional, cell-based; details: HepG2, 48 h
MGC-803 [2] = experiment: Induction of apoptosis in human MGC803 cells after 48 hrs by Annexin V-FITC/propidium iodide staining based flow cytometry; assay type: functional, cell-based
MGC-803 [3] = experiment: Inhibition of colony formation in human MGC803 cells after 7 days by crystal violet staining based assay; assay type: functional, cell-based
MGC-803 [4] = experiment: Antiproliferative activity against human MGC803 cells assessed as cell viability at 30 nM measured after 7 days by crystal violet staining based assay relative to control; assay type: functional; details: MGC-803, 168 h, read-out: Activity
MGC-803 [5] = experiment: Antiproliferative activity against human MGC803 cells assessed as cell viability at 60 nM measured after 7 days by crystal violet staining based assay relative to control; assay type: functional; details: MGC-803, 168 h, read-out: Activity
MGC-803 [6] = experiment: Antiproliferative activity against human MGC803 cells assessed as cell viability at 90 nM measured after 7 days by crystal violet staining based assay relative to control; assay type: functional; details: MGC-803, 168 h, read-out: Activity
MGC-803 [7] = experiment: Antiproliferative activity against human MGC803 cells assessed as cell viability at 120 nM measured after 7 days by crystal violet staining based assay relative to control; assay type: functional; details: MGC-803, 168 h, read-out: Activity
MGC-803 [8] = experiment: Cell cycle arrest in human MGC803 cells assessed as decrease in accumulation at S-phase at 30 to 90 nM measured after 48 hrs by propidium iodide staining based flow cytometry; assay type: functional
MGC-803 [9] = experiment: Cell cycle arrest in human MGC803 cells assessed as decrease in accumulation at G1-phase at 30 to 90 nM measured after 48 hrs by propidium iodide staining based flow cytometry; assay type: functional
MGC-803 [10] = experiment: Cell cycle arrest in human MGC803 cells assessed as accumulation at G2/M-phase at 90 nM measured after 48 hrs by propidium iodide staining based flow cytometry relative to control; assay type: functional
MGC-803 [11] = experiment: Cell cycle arrest in human MGC803 cells assessed as accumulation at G2/M-phase measured after 48 hrs by propidium iodide staining based flow cytometry; assay type: functional
MGC-803 [12] = experiment: Down regulation of CDK1 expression in human MGC803 cells by Western blot analysis; assay type: functional, cell-based
[13] = target: Cyclin-dependent kinase 1 (Homo sapiens) (UniProt P06493); experiment: Effect on CDK1 phosphorylation at Tyr15 residues in human MGC803 cells at 30 to 90 nM by Western blot analysis; assay type: cell-based
MGC-803 [14] = experiment: Up regulation of CDC25C expression in human MGC803 cells at 30 to 90 nM by Western blot analysis; assay type: functional, cell-based
MGC-803 [15] = experiment: Down regulation of CDK1 expression in human MGC803 cells at 30 to 90 nM in presence of proteasome inhibitor MG132 by Western blot analysis; assay type: functional, cell-based
[16] = target: T1, Cyclin-dependent kinase 1/cyclin B1 (Homo sapiens) (UniProt P06493+P14635); experiment: Effect on CDK1-cyclin B1 protein-protein interaction in human MGC803 cells assessed as change in cyclin B1 expression at 30 to 90 nM measured after 48 hrs by immunoprecipitation based Western blot analysis; assay type: cell-based
[17] = target: T1, Cyclin-dependent kinase 1/cyclin B1 (Homo sapiens); experiment: Effect on CDK1-cyclin B1 protein-protein interaction in human MGC803 cells assessed as change in CDK1 expression at 30 to 90 nM measured after 48 hrs by immunoprecipitation based Western blot analysis; assay type: cell-based
MGC-803 [18] = experiment: Induction of apoptosis in human MGC803 cells assessed as viable cells at 30 nM after 48 hrs by Annexin V-FITC/propidium iodide staining based flow cytometry (reference value: 94.9%); assay type: functional; details: MGC-803, 48 h, read-out: Activity
MGC-803 [19] = experiment: Induction of apoptosis in human MGC803 cells assessed as early apoptotic cells at 30 nM after 48 hrs by Annexin V-FITC/propidium iodide staining based flow cytometry (reference value: 1.9%); assay type: functional
MGC-803 [20] = experiment: Induction of apoptosis in human MGC803 cells assessed as late apoptotic cells at 30 nM after 48 hrs by Annexin V-FITC/propidium iodide staining based flow cytometry (reference value: 2.9%); assay type: functional
MGC-803 [21] = experiment: Induction of apoptosis in human MGC803 cells assessed as necrotic cells at 30 nM after 48 hrs by Annexin V-FITC/propidium iodide staining based flow cytometry (reference value: 0.3%); assay type: functional
MGC-803 [22] = experiment: Induction of apoptosis in human MGC803 cells assessed as viable cells at 60 nM after 48 hrs by Annexin V-FITC/propidium iodide staining based flow cytometry (reference value: 94.9%); assay type: functional; details: MGC-803, 48 h, read-out: Activity
MGC-803 [23] = experiment: Induction of apoptosis in human MGC803 cells assessed as early apoptotic cells at 60 nM after 48 hrs by Annexin V-FITC/propidium iodide staining based flow cytometry (reference value: 1.9%); assay type: functional
MGC-803 [24] = experiment: Induction of apoptosis in human MGC803 cells assessed as late apoptotic cells at 60 nM after 48 hrs by Annexin V-FITC/propidium iodide staining based flow cytometry (reference value: 2.9%); assay type: functional
MGC-803 [25] = experiment: Induction of apoptosis in human MGC803 cells assessed as necrotic cells at 60 nM after 48 hrs by Annexin V-FITC/propidium iodide staining based flow cytometry (reference value: 0.3%); assay type: functional
MGC-803 [26] = experiment: Induction of apoptosis in human MGC803 cells assessed as viable cells at 90 nM after 48 hrs by Annexin V-FITC/propidium iodide staining based flow cytometry (reference value: 94.9%); assay type: functional; details: MGC-803, 48 h, read-out: Activity
MGC-803 [27] = experiment: Induction of apoptosis in human MGC803 cells assessed as early apoptotic cells at 90 nM after 48 hrs by Annexin V-FITC/propidium iodide staining based flow cytometry (reference value: 1.9%); assay type: functional
MGC-803 [28] = experiment: Induction of apoptosis in human MGC803 cells assessed as late apoptotic cells at 90 nM after 48 hrs by Annexin V-FITC/propidium iodide staining based flow cytometry (reference value: 2.9%); assay type: functional
MGC-803 [29] = experiment: Induction of apoptosis in human MGC803 cells assessed as necrotic cells at 90 nM after 48 hrs by Annexin V-FITC/propidium iodide staining based flow cytometry (reference value: 0.3%); assay type: functional
MGC-803 [30] = experiment: Induction of apoptosis in human MGC803 cells assessed as down regulation of Bcl-xl expression after 48 hrs by Western blot analysis; assay type: functional, cell-based
MGC-803 [31] = experiment: Induction of apoptosis in human MGC803 cells assessed as down regulation of XIAP expression after 48 hrs by Western blot analysis; assay type: functional, cell-based
MGC-803 [32] = experiment: Induction of apoptosis in human MGC803 cells assessed as up regulation of cleaved PARP expression at 30 to 90 nM after 48 hrs by Western blot analysis; assay type: functional, cell-based
MGC-803 [33] = experiment: Induction of apoptosis in human MGC803 cells assessed as up regulation of Bax expression at 30 to 90 nM after 48 hrs by Western blot analysis; assay type: functional, cell-based
MGC-803 [34] = experiment: Induction of apoptosis in human MGC803 cells assessed as up regulation of DR5 expression at 30 to 90 nM after 48 hrs by Western blot analysis; assay type: functional, cell-based
Tubulin = experiment: Inhibition of tubulin (unknown origin) polymerization measured every minute by spectrophotometric method; assay type: protein-complex assay, Homo sapiens
[35] = target: Tubulin beta (Homo sapiens) (UniProt P68371+Q9H4B7+Q13509+P04350+Q3ZCM7+P07437+Q13885+Q9BVA1+Q9BUF5+A6NNZ2); experiment: Inhibition of EBI binding to beta-tubulin colchicine binding site in human MGC803 cells at 0.4 to 4 uM preincubated for 2 hrs followed by EBI addition and measured after 2 hrs by Western blot analysis; assay type: cell-based
Tubulin (Homo sapiens) = Tubulin (Homo sapiens) (UniProt P68371+Q9H4B7+P0DPH7+P68366+Q13509+Q71U36+P04350+Q3ZCM7+P07437+P68363+Q9BQE3+Q6PEY2+Q13885+Q9BVA1+Q9BUF5); experiment: Induction of microtubule depolymerization in human MGC803 cells at 60 to 90 nM measured after 48 hrs by DAPI staining based laser confocal microscopic analysis; assay type: cell-based

T1 sequence (P06493 whole entry, looked up): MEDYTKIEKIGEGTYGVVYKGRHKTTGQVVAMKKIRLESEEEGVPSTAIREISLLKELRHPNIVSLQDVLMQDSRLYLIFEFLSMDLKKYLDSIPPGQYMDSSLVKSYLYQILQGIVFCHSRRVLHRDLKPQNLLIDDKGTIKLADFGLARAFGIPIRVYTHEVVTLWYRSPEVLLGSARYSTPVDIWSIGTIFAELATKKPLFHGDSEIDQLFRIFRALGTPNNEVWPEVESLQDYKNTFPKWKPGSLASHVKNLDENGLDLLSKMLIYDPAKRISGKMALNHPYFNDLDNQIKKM
T1 sequence (P14635 whole entry, looked up): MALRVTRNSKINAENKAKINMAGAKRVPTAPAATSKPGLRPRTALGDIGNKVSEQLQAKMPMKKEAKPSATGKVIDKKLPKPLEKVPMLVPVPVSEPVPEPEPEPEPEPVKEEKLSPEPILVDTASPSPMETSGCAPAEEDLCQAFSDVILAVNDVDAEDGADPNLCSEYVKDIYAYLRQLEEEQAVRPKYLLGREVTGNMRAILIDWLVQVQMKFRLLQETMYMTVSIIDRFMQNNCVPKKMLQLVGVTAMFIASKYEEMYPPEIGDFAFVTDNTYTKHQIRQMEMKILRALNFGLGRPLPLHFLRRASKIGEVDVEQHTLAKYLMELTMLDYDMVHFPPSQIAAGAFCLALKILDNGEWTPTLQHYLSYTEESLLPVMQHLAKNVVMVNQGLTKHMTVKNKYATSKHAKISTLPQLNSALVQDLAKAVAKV
Cyclin-dependent kinase 1 (Homo sapiens), sequence (P06493 whole entry, looked up): as the sequence (P06493 whole entry, looked up) above

Structure (SMILES): COc1ccc(CN(C(=O)Cn2cc(COc3ccc4c(C)cc(=O)oc4c3)nn2)c2cc(OC)c(OC)c(OC)c2)cc1
Activity (MGC-803 [2]): Dose-dependent effect | IC50 (PC-3): 0.34 µM | IC50 (MGC-803 [1]): 0.13 µM | IC50 (HepG2): 1.74 µM | inhibition (MGC-803 [3]): Dose-dependent effect | viability at 0.03 µM (MGC-803 [4]): 85.9% | viability at 0.06 µM (MGC-803 [5]): 62.6% | viability at 0.09 µM (MGC-803 [6]): 31.8% | viability at 0.12 µM (MGC-803 [7]): 16% | Activity (MGC-803 [8]): Active | Activity (MGC-803 [9]): Active | Activity (MGC-803 [10]): Active | Activity (MGC-803 [11]): Dose-dependent effect | Activity (MGC-803 [12]): Dose-dependent effect | Activity [13]: inactive | Activity (MGC-803 [14]): inactive | Activity (MGC-803 [15]): Active | Activity [16]: inactive | Activity [17]: inactive | viability at 0.03 µM (MGC-803 [18]): 94.5% | Activity (MGC-803 [19]): 2.1% | Activity (MGC-803 [20]): 3.1% | Activity (MGC-803 [21]): 0.2% | viability at 0.06 µM (MGC-803 [22]): 92.1% | Activity (MGC-803 [23]): 3.1% | Activity (MGC-803 [24]): 4.5% | Activity (MGC-803 [25]): 0.3% | viability at 0.09 µM (MGC-803 [26]): 37.9% | Activity (MGC-803 [27]): 25% | Activity (MGC-803 [28]): 36.8% | Activity (MGC-803 [29]): 0.4% | Activity (MGC-803 [30]): Dose-dependent effect | Activity (MGC-803 [31]): Dose-dependent effect | Activity (MGC-803 [32]): Active | Activity (MGC-803 [33]): Active | Activity (MGC-803 [34]): Active | IC50 (Tubulin): 2.16 µM | inhibition [35]: Active | Activity (Tubulin (Homo sapiens)): Active

Structure (SMILES): COc1ccc(CN(C(=O)Cn2cc(CNS(=O)(=O)c3ccc(C)cc3)nn2)c2cc(OC)c(OC)c(OC)c2)cc1
IC50 (PC-3): 12.4 µM | IC50 (MGC-803 [1]): 1.58 µM | IC50 (HepG2): 30.5 µM

Structure (SMILES): COc1ccc(CN(C(=O)Cn2cc(CSc3nc4ccccc4o3)nn2)c2cc(OC)c(OC)c(OC)c2)cc1
IC50 (PC-3): 5.05 µM | IC50 (MGC-803 [1]): 1.85 µM | IC50 (HepG2): 15.6 µM

Structure (SMILES): COc1cc2c(c(OC)c1OC)-c1ccc(OC)c(=O)cc1[C@@H](NC(C)=O)CC2 [COLCHICINE]
IC50 (PC-3): 0.59 µM | IC50 (MGC-803 [1]): 0.27 µM | IC50 (HepG2): 4.6 µM

Structure (SMILES): COc1ccc(CN(C(=O)Cn2cc(COc3ccccc3)nn2)c2cc(OC)c(OC)c(OC)c2)cc1
IC50 (PC-3): 45.3 µM | IC50 (MGC-803 [1]): 12.5 µM | IC50 (HepG2): 20.5 µM

Structure (SMILES): C#CCOc1ccc2ccc(=O)oc2c1
IC50 (PC-3): > 80 µM | IC50 (MGC-803 [1]): > 80 µM | IC50 (HepG2): > 80 µM

Structure (SMILES): COc1ccc(CN(C(=O)Cn2cc(Cn3ccc4ccccc43)nn2)c2cc(OC)c(OC)c(OC)c2)cc1
IC50 (PC-3): 2.39 µM | IC50 (MGC-803 [1]): 42.6 µM | IC50 (HepG2): 40.1 µM

Results, then the compound that gave them:

IC50 (PC-3): 10.9 µM | IC50 (MGC-803 [1]): 6.57 µM | IC50 (HepG2): 28.3 µM
Structure (SMILES): COc1ccc(CN(C(=O)Cn2cc(CSc3nnnn3C)nn2)c2cc(OC)c(OC)c(OC)c2)cc1

IC50 (PC-3): 19.6 µM | IC50 (MGC-803 [1]): 1.52 µM | IC50 (HepG2): 21.8 µM
Structure (SMILES): COc1ccc(CN(C(=O)Cn2cc(CSc3nnc(-c4ccccc4)c(-c4ccccc4)n3)nn2)c2cc(OC)c(OC)c(OC)c2)cc1

IC50 (PC-3): > 80 µM | IC50 (MGC-803 [1]): > 80 µM | IC50 (HepG2): > 80 µM
Structure (SMILES): C#CCOc1ccc2c(C)cc(=O)oc2c1
